Where a name gives a salt, the structure may show the parent alone. Read-outs that look alike come from different tables or passages of the source.
Tests used:
[1] = test system: nigrostriated dopaminergic bundle; test: Rotational behaviour after unilateral lesion of the nigrostriated bundle by 6-hydroxydopamine; assay type: in vivo, rats
Description: (1) Rotational behaviour after unilateral lesion of the nigrostriated bundle by 6-hydroxydopamine.
Male rats of about 220 g weight were injured in the nigrostriated dopaminergic bundle by a modified Ungerstedt's method [Acta. physiol. Scand. 1971, 82 suppl. 367-69 93] by unilateral injection of […] of 6-hydroxydopamine hydrochloride in solution in 4 microliters of physiological solution containing 0.4 mg/ml of ascorbic acid. The products studied were administered intraperitoneally and the treated animals were placed individually in a rotameter which enabled the counting of the number of rotations made by each animal in the direction opposite to that of the injured side.

arterial pressure = test: Study of the hypotensive activity on anesthetized "normotendu" rat; assay type: in vivo, Male Sprague-Dawley rats (CR); conditions: jugular vein injection
Description: (5) Study of the hypotensive activity on anesthetized "normotendu" rat.
Male Sprague-Dawley rats (CR) were anesthetized intraperitoneally with sodium pentobarbital (60 mg/Kg). A jugular vein was catheterized for injection of the product and a carotid artery was catheterized for registration of the arterial pressure. The product to be tested was dissolved in 10% of ethanol and then injected at a volume of 1 ml/kg. […] The following table indicates the variations of the arterial pressure after administration of the product tested expressed as a percentage of the initial control arterial pressure.

mice = test: Study of the acute toxicity (LDO, oral route); assay type: in vivo
Description: (3) Study of the acute toxicity
The lethal doses LDO of the different compounds tested were evaluated after administration by oral route in mice. The maximum dose not causing any mortality in 8 days was called LDO and the following results were obtained: […]

dopaminergic receptors = biological target: T1, dopaminergic receptors (Rattus norvegicus, UniProt P61169); test: Affinity for the dopaminergic receptors (displacement of 3H spiroperidol, striated bodies); assay type: binding, rats
T1 construct: The striated bodies removed from the brains of 6 male rats; from tissue; host or cells: rat striatum (striated bodies), membrane preparation
T1 sequence (P61169 whole entry): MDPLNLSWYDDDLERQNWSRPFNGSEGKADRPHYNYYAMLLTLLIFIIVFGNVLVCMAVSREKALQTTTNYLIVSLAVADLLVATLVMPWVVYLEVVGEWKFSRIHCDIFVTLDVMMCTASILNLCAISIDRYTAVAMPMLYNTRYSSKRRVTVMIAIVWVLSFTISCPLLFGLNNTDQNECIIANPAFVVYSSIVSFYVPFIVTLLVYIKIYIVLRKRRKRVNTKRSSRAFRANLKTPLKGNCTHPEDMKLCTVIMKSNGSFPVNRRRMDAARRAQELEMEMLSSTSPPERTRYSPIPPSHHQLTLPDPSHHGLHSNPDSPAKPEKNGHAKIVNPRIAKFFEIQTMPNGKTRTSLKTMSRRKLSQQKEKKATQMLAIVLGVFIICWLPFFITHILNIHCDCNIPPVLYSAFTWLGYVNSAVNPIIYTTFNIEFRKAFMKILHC
Description: (4) Affinity for the dopaminergic receptors
The striated bodies removed from the brains of 6 male rats weighing an average of 150 g were homogenized to the twentieth (weight/volume) in 0.32M sucrose. After centrifuging the homogenized mixture at 1,000 g for 10 minutes at 0° C. the supernatant was centrifuged at 30,000 g for 15 minutes at +4° C. The residue was taken up in 25 ml of Tris HCl 50 mM buffer, pH 7.7, and centrifuged at 30,000 g for 15 minutes at +4° C. The new residue was taken up in 50 ml of Krebs Tris HCl buffer pH 7.3, and the suspension was pre-incubated fo 10 minutes at 37° C. It was then incubated for 20 minutes on a water-bath at +37° C. in the presence of 3H spinoperidol alone, with an excess of haloperidol and with increasing concentrations of the product under test. The incubated suspensions were filtered on Whatman GF/C and the filters were washed three times with 5 ml of Tris HCl 50 mM buffer. The radio-activity of the filters was measured by liquid scintillation.
The non-specific fixation were determined in parallel by incubation of 3H spiroperidol in the presence of an excess of haloperidol and the following results were obtained. The result was expressed directly in 50% inhibiting concentrations, (IC50 : concentration of product studied, expressed in nM, necessary to displace 50% of the specific radio-activity fixed on the receptor studied).

[2] = test system: average arterial pressure; test: Test of revealing a direct vasodilatation activity (demedulated rats under angiotensine II perfusion); assay type: in vivo, Rats of Sprague-Dawley strain; conditions: Rattus norvegicus, intravenous cumulative doses, tested between 0.001 and 1 mg/kg, read-out: dose from which vasodilatation effect starts
Description: Rats of Sprague-Dawley strain with a weight of 320-350 g were anesthetized with pentobarbital (50 mg/kg by interperitoneal injection). After insertion of a carotid catheter to measure the arterial pressure and a jugular catheter for the injection of the compounds to be stidied as well as the eventual antagonists, the animals were demedulated by a steel rod which was introduced by the right orbital hole and passed down the whole length of the spinal marrow. The animals were then placed immediately under assisted respiration and some minutes after stabilization of arterial pressure, the animals received an intravenous perfusion of angiotensine II of 0.50 micrograms/kg per minute to increase their average pressure by about 100 mm of mercury. After obtaining a plateau, the test compound was injected intravenously every 2 minutes and in cumulative doses. The percentages of fall of the average arterial pressure so obtained enabled a curve of dose-response to be drawn reflecting the vasodilatation activity of the molecule studied. Previous treatment of the animals by different antagonists enabled the mechanism of action of this molecule to be distinguished. The products were tested between 0.001 and 1 mg/kg and domperidone and propanolol were used as antagonists.

CN1CCCC(c2ccc(O)c3[nH]c(=O)[nH]c23)C1 (stereo not shown) [Example 6, 1,3-dihydro-4-hydroxy-7-(1-methyl-3-piperidinyl)-2H-benzimidazol-3-one hydrobromide]
minimal effective dose ([1]; Rattus norvegicus, ip, read-out: dose from which rotational behavior is induced): 10 mg/kg
rotational behavior (activity) ([1]; rats, intraperitoneal, dose of 5 mg/kg): inactive
central dopaminergic agonist activity ([1]; rats, intraperitoneal, conclusion from rotation model of very great sensitivity): weak

Br.CCCN1CCCC(c2ccc(O)c3[nH]c(=O)[nH]c23)C1 (stereo not shown) [Example 5, 1,3-dihydro-4-hydroxy-7-(1-propyl-3-piperidinyl)-2H-benzimidazol-2-one hydrobromide]
variation of the arterial pressure 5 min. after administration (arterial pressure; dose 1 mg/kg): -19 percentage of the initial cont
variation of the arterial pressure 30 min. after administration (arterial pressure; dose 1 mg/kg): -19 percentage of the initial cont
variation of the arterial pressure 5 min. after administration (arterial pressure; dose 10 mg/kg): -23 percentage of the initial cont
variation of the arterial pressure 30 min. after administration (arterial pressure; dose 10 mg/kg): -21 percentage of the initial cont

O=c1[nH]c2cccc(C3CCCNC3)c2[nH]1 (stereo not shown) [Example 1, 1,3-dihydro-4-(3-piperidinyl)-2H-benzimidazol-2-one]
LDO (maximum dose not causing any mortality in 8 days) (mice): greater than 400 mg/kg
IC50 (dopaminergic receptors; rat striated bodies, 3H spiroperidol, 20 minutes at 37° C., pH 7.3, read-out: IC50 (displacement of 50% of the specific radio-activity fixed on the receptor)): 172 nM

Br.O=c1[nH]c2c(O)ccc(C3CCCNC3)c2[nH]1 (stereo not shown) [Example 4, 1,3-dihydro-4-hydroxy-7-(3-piperidinyl)-2H-benzimidazol-2-one hydrobromide]
minimal effective dose [2]: 0.03 mg/kg
LDO (maximum dose not causing any mortality in 8 days) (mice): greater than 400 mg/kg
IC50 (dopaminergic receptors): 300 nM
variation of the arterial pressure 30 min. after administration (arterial pressure; dose 0.1 mg/kg): -17 percentage of the initial cont

Source: patent US4831043A, “Dopaminergic benzimidazol-2-ones” (Roussel Uclaf, priority 1987, dated 1989)
